Results from patent publication US8969294B2 (Istituto di Recerche di Biologia Molecolare P. Angeletti …, priority 2008, dated 2015).
Square brackets hold non-standard residues; d marks the D form. Side chains are listed from the residue outwards. Peptide text beside a SMILES is read from it. * marks the point of attachment. Palmitoyl = CCCCCCCCCCCCCCCC(=O)*; Aib = CC(C)(N)C(=O)O

Target: glucagon receptor (Homo sapiens, UniProt P47871)
Assay: Functional assay, cAMP synthesis: luciferase reporter in HEK293 cells co-transfected with glucagon receptor
[1] = EC50 at Glucagon Receptor (20% human plasma), Table 28, 20% human plasma
[2] = EC50 at Glucagon Receptor, Table 28
[3] = Glucagon Receptor EC50, Table 20
[4] = EC50 at the Glucagon receptor, Table 21

Chain of glucagon receptor (P47871 26-477): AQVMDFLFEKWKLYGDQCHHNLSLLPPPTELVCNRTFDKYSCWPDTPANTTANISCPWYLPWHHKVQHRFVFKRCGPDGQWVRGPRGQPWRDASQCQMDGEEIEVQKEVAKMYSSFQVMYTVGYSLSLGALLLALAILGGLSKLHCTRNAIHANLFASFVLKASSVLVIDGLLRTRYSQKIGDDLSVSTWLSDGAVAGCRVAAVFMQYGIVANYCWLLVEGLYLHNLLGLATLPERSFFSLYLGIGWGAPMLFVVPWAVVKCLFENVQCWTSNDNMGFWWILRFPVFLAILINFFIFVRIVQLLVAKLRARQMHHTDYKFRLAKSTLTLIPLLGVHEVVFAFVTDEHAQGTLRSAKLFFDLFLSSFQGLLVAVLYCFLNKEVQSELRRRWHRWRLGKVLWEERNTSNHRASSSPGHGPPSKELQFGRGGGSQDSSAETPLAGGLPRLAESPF

In the case of `CCCCCCCCCCCCCCCC(=O)NCCCC[C@H](NC(=O)[C@H](CC(=O)O)NC(=O)[C@H](CO)NC(=O)[C@@H](NC(=O)[C@H](Cc1ccccc1)NC(=O)[C@@H](NC(=O)CNC(=O)[C@H](CCC(N)=O)NC(=O)C(C)(C)NC(=O)[C@@H](N)Cc1c[nH]cn1)[C@@H](C)O)[C@@H](C)O)C(=O)N[C@@H](CO)C(=O)N[C@@H](CCCCN)C(=O)N[C@@H](Cc1ccc(O)cc1)C(=O)N[C@@H](CC(C)C)C(=O)N[C@@H](CC(=O)O)C(=O)NC(C)(C)C(=O)N[C@@H](CCCNC(=N)N)C(=O)N[C@@H](CCCNC(=N)N)C(=O)N[C@@H](C)C(=O)N[C@@H](CCC(N)=O)C(=O)N[C@@H](CC(=O)O)C(=O)N[C@@H](Cc1ccccc1)C(=O)N[C@H](C(=O)N[C@@H](CCC(N)=O)C(=O)N[C@@H](Cc1c[nH]c2ccccc12)C(=O)N[C@@H](CC(C)C)C(=O)N[C@@H](CCSC)C(=O)N[C@@H](CC(N)=O)C(=O)N[C@H](C(=O)N[C@@H](CCCCN)C(N)=O)[C@@H](C)O)C(C)C`, the EC50 [1] is reported as 313 pM and the EC50 [2] is reported as 761 pM.

For `CCCCCCCCCCCCCCCC(=O)N[C@@H](Cc1c[nH]c2ccccc12)C(=O)NCCCC[C@H](NC(=O)[C@H](CC(=O)O)NC(=O)[C@H](CO)NC(=O)[C@@H](NC(=O)[C@H](Cc1ccccc1)NC(=O)[C@@H](NC(=O)CNC(=O)[C@H](CCC(N)=O)NC(=O)C(C)(C)NC(=O)[C@@H](N)Cc1c[nH]cn1)[C@@H](C)O)[C@@H](C)O)C(=O)N[C@@H](CO)C(=O)N[C@@H](CCCCN)C(=O)N[C@@H](Cc1ccc(O)cc1)C(=O)N[C@@H](CC(C)C)C(=O)N[C@@H](CC(=O)O)C(=O)NC(C)(C)C(=O)N[C@@H](CCCNC(=N)N)C(=O)N[C@@H](CCCNC(=N)N)C(=O)N[C@@H](C)C(=O)N[C@@H](CCC(N)=O)C(=O)N[C@@H](CC(=O)O)C(=O)N[C@@H](Cc1ccccc1)C(=O)N[C@H](C(=O)N[C@@H](CS)C(=O)N[C@@H](Cc1c[nH]c2ccccc12)C(=O)N[C@@H](CC(C)C)C(=O)N[C@@H](CCSC)C(=O)N[C@@H](CC(N)=O)C(=O)N[C@H](C(N)=O)[C@@H](C)O)C(C)C`, the EC50 [3] was 250 pM.

Molecule `CCCCCCCCCCCCCCCC(=O)N[C@@H](Cc1c[nH]c2ccccc12)C(=O)NCCCC[C@H](NC(=O)[C@H](CC(=O)O)NC(=O)[C@H](CO)NC(=O)[C@@H](NC(=O)[C@H](Cc1ccccc1)NC(=O)[C@@H](NC(=O)CNC(=O)[C@H](CCC(N)=O)NC(=O)C(C)(C)NC(=O)[C@@H](N)Cc1c[nH]cn1)[C@@H](C)O)[C@@H](C)O)C(=O)N[C@@H](CO)C(=O)N[C@@H](CCCCN)C(=O)N[C@@H](Cc1ccc(O)cc1)C(=O)N[C@@H](CC(C)C)C(=O)N[C@@H](CC(=O)O)C(=O)NC(C)(C)C(=O)N[C@@H](CCCNC(=N)N)C(=O)N[C@@H](CCCNC(=N)N)C(=O)N[C@@H](C)C(=O)NC(C)(C)C(=O)N[C@@H](CC(=O)O)C(=O)N[C@@H](Cc1ccccc1)C(=O)N[C@H](C(=O)N[C@@H](CS)C(=O)N[C@@H](Cc1c[nH]c2ccccc12)C(=O)N[C@@H](CC(C)C)C(=O)N[C@@H](CCSC)C(=O)N[C@@H](CC(N)=O)C(=O)N[C@H](C(N)=O)[C@@H](C)O)C(C)C` (H-H[Aib]QGTFTSDK([Trp-Palmitoyl])SKYLD[Aib]RRA[Aib]DFVCWLMNT-NH2; N-terminus assumed) has an EC50 [3] of 2060 pM.

For `CCCCCCCCCCCCCC(=O)NCCCC[C@H](NC(=O)[C@H](CC(=O)O)NC(=O)[C@H](CO)NC(=O)[C@@H](NC(=O)[C@H](Cc1ccccc1)NC(=O)[C@@H](NC(=O)CNC(=O)[C@H](CCC(N)=O)NC(=O)C(C)(C)NC(=O)[C@@H](N)Cc1c[nH]cn1)[C@@H](C)O)[C@@H](C)O)C(=O)N[C@@H](CO)C(=O)N[C@@H](CCCCN)C(=O)N[C@@H](Cc1ccc(O)cc1)C(=O)N[C@@H](CC(C)C)C(=O)N[C@@H](CC(=O)O)C(=O)NC(C)(C)C(=O)N[C@@H](CCCNC(=N)N)C(=O)N[C@@H](CCCNC(=N)N)C(=O)N[C@@H](C)C(=O)N[C@@H](CCC(N)=O)C(=O)N[C@@H](CC(=O)O)C(=O)N[C@@H](Cc1ccccc1)C(=O)N[C@H](C(=O)N[C@@H](CCC(N)=O)C(=O)N[C@@H](Cc1c[nH]c2ccccc12)C(=O)N[C@@H](CC(C)C)C(=O)N[C@@H](CCSC)C(=O)N[C@@H](CC(N)=O)C(=O)N[C@H](C(N)=O)[C@@H](C)O)C(C)C` [AIB2, AIB16, K10(C14) Gluc Amide], the EC50 [4] was 44 pM.

`CCCCCCCCCCCCCCCC(=O)NCCCC[C@H](NC(=O)[C@H](CC(=O)O)NC(=O)[C@H](CO)NC(=O)[C@@H](NC(=O)[C@H](Cc1ccccc1)NC(=O)[C@@H](NC(=O)CNC(=O)[C@H](CCC(N)=O)NC(=O)C(C)(C)NC(=O)[C@@H](N)Cc1c[nH]cn1)[C@@H](C)O)[C@@H](C)O)C(=O)N[C@@H](CO)C(=O)N[C@@H](CCCCN)C(=O)N[C@@H](Cc1ccc(O)cc1)C(=O)N[C@@H](CC(C)C)C(=O)N[C@@H](CC(=O)O)C(=O)NC(C)(C)C(=O)N[C@@H](CCCNC(=N)N)C(=O)N[C@@H](CCCNC(=N)N)C(=O)N[C@@H](C)C(=O)N[C@@H](CCC(N)=O)C(=O)N[C@@H](CC(=O)O)C(=O)N[C@@H](Cc1ccccc1)C(=O)N[C@H](C(=O)N[C@@H](CCC(N)=O)C(=O)N[C@@H](Cc1c[nH]c2ccccc12)C(=O)N[C@@H](CC(C)C)C(=O)N[C@@H](CCSC)C(=O)N[C@@H](CC(N)=O)C(=O)N[C@H](C(N)=O)[C@@H](C)O)C(C)C` [AIB2, AIB16, K10(C16) Gluc Amide] was tested, and the EC50 [1] was 23 pM, the EC50 [2] was 52 pM and the EC50 [4] was 20 pM.

`CCCCCCCCCCCCCCCCCC(=O)NCCCC[C@H](NC(=O)[C@H](CC(=O)O)NC(=O)[C@H](CO)NC(=O)[C@@H](NC(=O)[C@H](Cc1ccccc1)NC(=O)[C@@H](NC(=O)CNC(=O)[C@H](CCC(N)=O)NC(=O)C(C)(C)NC(=O)[C@@H](N)Cc1c[nH]cn1)[C@@H](C)O)[C@@H](C)O)C(=O)N[C@@H](CO)C(=O)N[C@@H](CCCCN)C(=O)N[C@@H](Cc1ccc(O)cc1)C(=O)N[C@@H](CC(C)C)C(=O)N[C@@H](CC(=O)O)C(=O)NC(C)(C)C(=O)N[C@@H](CCCNC(=N)N)C(=O)N[C@@H](CCCNC(=N)N)C(=O)N[C@@H](C)C(=O)N[C@@H](CCC(N)=O)C(=O)N[C@@H](CC(=O)O)C(=O)N[C@@H](Cc1ccccc1)C(=O)N[C@H](C(=O)N[C@@H](CCC(N)=O)C(=O)N[C@@H](Cc1c[nH]c2ccccc12)C(=O)N[C@@H](CC(C)C)C(=O)N[C@@H](CCSC)C(=O)N[C@@H](CC(N)=O)C(=O)N[C@H](C(N)=O)[C@@H](C)O)C(C)C` [AIB2, AIB16, K10(C18) Gluc Amide] gave an EC50 [4] of 16 pM.

`CCCCCCCCCCCCCCCC(=O)NCCCC[C@H](NC(=O)[C@H](CC(=O)O)NC(=O)[C@H](CO)NC(=O)[C@@H](NC(=O)[C@H](Cc1ccccc1)NC(=O)[C@@H](NC(=O)CNC(=O)[C@H](CCC(N)=O)NC(=O)[C@H](CO)NC(=O)[C@@H](N)Cc1c[nH]cn1)[C@@H](C)O)[C@@H](C)O)C(=O)N[C@@H](CO)C(=O)N[C@@H](CCCCN)C(=O)N[C@@H](Cc1ccc(O)cc1)C(=O)N[C@@H](CC(C)C)C(=O)N[C@@H](CC(=O)O)C(=O)N[C@@H](CCC(=O)O)C(=O)N[C@@H](CCCNC(=N)N)C(=O)N[C@@H](CCCNC(=N)N)C(=O)N[C@@H](C)C(=O)N[C@@H](CCCCN)C(=O)N[C@@H](CC(=O)O)C(=O)N[C@@H](Cc1ccccc1)C(=O)N[C@H](C(=O)N[C@@H](CCC(N)=O)C(=O)N[C@@H](Cc1c[nH]c2ccccc12)C(=O)N[C@@H](CC(C)C)C(=O)N[C@@H](CCSC)C(=O)N[C@@H](CC(N)=O)C(=O)N[C@H](C(N)=O)[C@@H](C)O)C(C)C` [E16 K20-glucagon-NH2 with K^10—C16] showed an EC50 (EC50, Glucagon Receptor, Table 13) of 400 pM and an EC50 (EC50 at Glucagon Receptor, Table 17) of 236 pM.
